Laboratory results reported in article PMC3166647 (Analytical and bioanalytical chemistry, 2011).

Biological target: T1, methionine aminopeptidase 1 (MetAP1) (Plasmodium yoelii, UniProt Q7RFT5)
T1 sequence (Q7RFT5 1-491): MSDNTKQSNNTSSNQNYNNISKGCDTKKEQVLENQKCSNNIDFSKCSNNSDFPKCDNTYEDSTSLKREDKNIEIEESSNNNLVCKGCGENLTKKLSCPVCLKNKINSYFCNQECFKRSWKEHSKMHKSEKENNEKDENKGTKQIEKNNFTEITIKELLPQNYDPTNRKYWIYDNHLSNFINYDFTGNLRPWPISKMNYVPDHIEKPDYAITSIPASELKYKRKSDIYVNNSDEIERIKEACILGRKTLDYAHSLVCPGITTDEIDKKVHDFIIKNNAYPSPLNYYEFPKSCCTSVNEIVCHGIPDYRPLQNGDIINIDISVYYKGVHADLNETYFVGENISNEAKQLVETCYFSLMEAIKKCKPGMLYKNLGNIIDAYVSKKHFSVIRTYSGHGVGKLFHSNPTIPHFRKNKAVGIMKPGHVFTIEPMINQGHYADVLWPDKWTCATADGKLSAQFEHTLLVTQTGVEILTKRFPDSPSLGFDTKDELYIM
Experiment: competition ultrafiltration with HPLC-UV
Format: binding
Settings: 4 °C; competes with fragments 4-9

CSCC[C@H](N)C(=O)O [methionine]
competition ultrafiltration with HPLC-UV: methionine was able to compete against lower-affinity ligands more efficiently than higher-affinity ligands
